Assay results: US8455226B2, “Method for producing metal nanoparticles” (Janssen Pharmaceutica N.V., priority 2006, dated 2013)

Legend:
Escherichia coli = experiment: Antimicrobial activity on a solid growth medium for Escherichia coli (Example 4); type: cell-based; conditions: 24 hours at 30° C., plated 2×10^6 CFU/mL
Experimental: 100 mL of a silver suspension with an Ag concentration of 5 mM, in the form of nanosilver deposited on Lactobacillus fermentum biomass as obtained in example 1, was plated onto a solidified growth medium for culturing Escherichia coli (Luria Bertani Agar). As a control, 100 mL of a solution of 5 mM AgNO3 in sterile milliQ water with 0.1 N NaOH were plated on the same growth medium. This setting agreed with a total amount of 0.05 mg Ag per agar plate, or 11 mg Ag per m^2 of total surface area. This experiment was repeated with twofold the latter concentrations, i.e. with 0.11 mg Ag per agar plate or 22 mg Ag per m^2 of total surface area.
By plating these silver suspensions, a homogeneous layer of Ag(I)NO3, or nano-Ag respectively, was applied onto the solidified growth media.
After pre-treating the solidified growth medium in this way, 100 μL of a 2×10^6 CFU/mL Escherichia coli suspension in physiological solution (8.5 g NaCl/L in sterile water) was plated on the pre-treated agar plates. The plates were then incubated during 24 hours at 30° C. and colonies were counted. The count results are illustrated by FIG. 1. At nano-Ag concentrations of 11 mg Ag/m^2 and 22 mg Ag/m^2, no viable cells of E. coli could be detected on the treated solid growth medium (<detection limit (D.L.)=1×10^1 CFU/ml). […]

some bacteria = conditions: cited from earlier work

SMILES | viable cells of E. coli on treated solid growth medium (Escherichia coli; 11 mg Ag/m^2) | viable cells of E. coli on treated solid growth medium (Escherichia coli; 22 mg Ag/m^2) | concentration known to inhibit the growth of some bacteria (some bacteria) [mg/L]
O=[N+]([O-])[O-].[Ag+] [Ag(I)NO3, AgNO3] | 4×10^2 CFU/ml | 1×10^2 CFU/ml | –
OO [Hydrogen peroxide] | – | – | 25
